One test deals with dengue viral protease. More on the design: method as in PMID 26247308. The conditions noted are these: previously reported by the group; cited from earlier work.
Another test concerns the target T1, hCA I (Homo sapiens, UniProt P00915).
T1 construct: hCA isoenzymes I and II used in these experiments were obtained, as earlier reported by our groups
In words: stopped-flow CO2 hydrase assay, hCA I. It is filed as biochemical. The conditions noted are these: for Ki: stopped-flow CO2 hydrase assay, mean from three different assays, errors ± 5–10%; for hCA I inhibition (in words): stopped-flow assay. As for the experimental part: (§1) The CA isoenzyme assay was performed using a stopped-flow Applied Photophysics (SX.18V-R; Oxford, UK) instrument using Khalifah’s technique. hCA isoenzymes I and II used in these experiments were obtained, as earlier reported by our groups.

In a further test the target is T2, hCA II (Homo sapiens, UniProt P00918).
T2 construct: hCA isoenzymes I and II used in these experiments were obtained, as earlier reported by our groups
In words: stopped-flow CO2 hydrase assay, hCA II. In kind it is biochemical. As to conditions: for Ki: stopped-flow CO2 hydrase assay, mean from three different assays, errors ± 5–10%; for hCA II inhibition (in words): stopped-flow assay. As for the experimental part: as §1

The values that follow come from PMC10348020, “Carbonic anhydrase inhibitory activity of phthalimide-capped benzene sulphonamide derivatives” (Journal of Enzyme Inhibition and Medicinal Chemistry, 2023).

The term Ki denotes the dissociation constant of the complex between target and ligand, obtained from inhibition or displacement. Higher therefore signals lower affinity.

“Also recorded” adds a separate entry of the source. Where only a bound is given, the exact number is not on record here.

T1 sequence (P00915 whole entry): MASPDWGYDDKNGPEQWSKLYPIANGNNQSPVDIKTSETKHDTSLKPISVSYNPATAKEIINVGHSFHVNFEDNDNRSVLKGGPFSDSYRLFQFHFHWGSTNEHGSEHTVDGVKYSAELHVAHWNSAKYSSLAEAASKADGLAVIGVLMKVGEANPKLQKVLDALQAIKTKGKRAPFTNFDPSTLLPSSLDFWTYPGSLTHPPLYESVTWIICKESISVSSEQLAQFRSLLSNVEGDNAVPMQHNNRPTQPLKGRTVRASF

For `NS(=O)(=O)c1ccc(N2C(=O)c3ccccc3C2=O)cc1` [Compound 1], the “dengue viral protease inhibition (in words)” value in the test with dengue viral protease is “inactive”.
On to `CC(C)NS(=O)(=O)c1ccc(N2C(=O)c3ccccc3C2=O)cc1` [Compound 2], for which the Ki on hCA I and at hCA II was over 10 µM in each case.
On to `O=C1c2ccccc2C(=O)N1c1ccc(S(=O)(=O)NCCc2ccccc2)cc1` [Compound 3], for which, on hCA I, the Ki stood at 7.35 µM and the “hCA I inhibition (in words)” value was “showed hCA I inhibition; also recorded: inhibited hCA I”.
In the case of `CN(C)S(=O)(=O)c1ccc(N2C(=O)c3ccccc3C2=O)cc1` [Compound 4], the values for the Ki at hCA I and at hCA II were over 10 µM and 9.06 µM, respectively. For the same compound, on hCA II, the “hCA II inhibition (in words)” value was “showed hCA II inhibition at nanomolar concentrations; also recorded: inhibited hCA II”.
As for `CCN(CC)S(=O)(=O)c1ccc(N2C(=O)c3ccccc3C2=O)cc1` [Compound 5], the Ki on hCA I and on hCA II was over 10 µM throughout.
In the case of `O=C1c2ccccc2C(=O)N1c1ccc(S(=O)(=O)N(c2ccccc2)c2ccccc2)cc1` [Compound 6], the Ki on hCA I and on hCA II was over 10 µM in each case.
Consider `O=C1c2ccccc2C(=O)N1c1ccc(S(=O)(=O)N2CCCCC2)cc1` [Compound 7], for which the Ki on hCA I and on hCA II was over 10 µM each time.
Take `CN1CCN(S(=O)(=O)c2ccc(N3C(=O)c4ccccc4C3=O)cc2)CC1` [Compound 8]: the Ki at hCA I and on hCA II was over 10 µM in each case.
Consider `O=C1c2ccccc2C(=O)N1c1ccc(S(=O)(=O)Nc2ccccc2)cc1` [Compound 9], for which the Ki on hCA I and on hCA II was over 10 µM in each case.
Consider `O=C1c2ccccc2C(=O)N1c1ccc(S(=O)(=O)Nc2ccccc2O)cc1` [Compound 10], for which, on hCA I, the Ki amounted to 5.52 µM and the “hCA I inhibition (in words)” value is reported as “showed hCA I inhibition; also recorded: inhibited hCA I”. Besides, on hCA II, the affinity, expressed as Ki, was 8.87 µM and the “hCA II inhibition (in words)” value is on record as “showed hCA II inhibition at nanomolar concentrations; also recorded: inhibited hCA II”.
For the compound `COc1cccc(NS(=O)(=O)c2ccc(N3C(=O)c4ccccc4C3=O)cc2)c1` [Compound 11], the Ki at hCA I and at hCA II was over 10 µM in each case.
Consider `COc1ccc(NS(=O)(=O)c2ccc(N3C(=O)c4ccccc4C3=O)cc2)cc1` [Compound 12], for which the Ki at hCA I and on hCA II was over 10 µM throughout.
For `O=C1c2ccccc2C(=O)N1c1ccc(S(=O)(=O)Nc2ccccc2Cl)cc1` [Compound 13], the Ki at hCA I and at hCA II was over 10 µM in each case.
Take `O=C1c2ccccc2C(=O)N1c1ccc(S(=O)(=O)Nc2cccc(Cl)c2)cc1` [Compound 14]: the Ki on hCA I and on hCA II was over 10 µM throughout.
As for `O=C1c2ccccc2C(=O)N1c1ccc(S(=O)(=O)Nc2ccc(Cl)cc2)cc1` [Compound 15], at hCA I, affinity was put at a Ki of 7.5 µM and the “hCA I inhibition (in words)” value was “showed hCA I inhibition; also recorded: inhibited hCA I”. In addition, at hCA II, the Ki was over 10 µM.
`Cc1ccccc1NS(=O)(=O)c1ccc(N2C(=O)c3ccccc3C2=O)cc1` [Compound 16]: the Ki at hCA I and at hCA II was over 10 µM in each case.
`Cc1cccc(NS(=O)(=O)c2ccc(N3C(=O)c4ccccc4C3=O)cc2)c1` [Compound 17]: the Ki on hCA I and at hCA II was over 10 µM in each case.
Consider `Cc1ccc(NS(=O)(=O)c2ccc(N3C(=O)c4ccccc4C3=O)cc2)cc1` [Compound 18], for which the Ki on hCA I and at hCA II was over 10 µM each time.
With `CCc1ccc(NS(=O)(=O)c2ccc(N3C(=O)c4ccccc4C3=O)cc2)cc1` [Compound 19], at hCA I, the inhibition constant Ki is over 10 µM and the “hCA I inhibition (in words)” value was “inactive”. Further, at hCA II, the Ki is over 10 µM and the “hCA II inhibition (in words)” value is “inactive”. The “dengue viral protease inhibition (in words)” value in the test with dengue viral protease is listed as “potent dengue protease inhibitor”.
In the case of `O=C1c2ccccc2C(=O)N1c1ccc(S(=O)(=O)Nc2cccc([N+](=O)[O-])c2)cc1` [Compound 20], the Ki at hCA I and on hCA II was over 10 µM throughout.
Regarding `O=C1c2ccccc2C(=O)N1c1ccc(S(=O)(=O)Nc2ccc([N+](=O)[O-])cc2)cc1` [Compound 21], the Ki at hCA I and on hCA II was over 10 µM in each case.
Consider `O=C(O)c1ccc(NS(=O)(=O)c2ccc(N3C(=O)c4ccccc4C3=O)cc2)cc1` [Compound 22], for which the Ki at hCA I and on hCA II was over 10 µM in each case.
